Laboratory results from patent US20030064989A1, “Inhibitors of cell proliferation, angiogenesis, fertility, and muscle contraction” (priority 2001, published 2003).
Values joined by “and” are separate entries in the source; they are usually repeats but may differ in a detail not shown here. Equal values may be shown once. “Also recorded” adds a separate entry of the source.

system: chick chorioallantoic membrane (CAM); assay: Chick chorioallantoic membrane (CAM) assay, CAM area; settings: 5e-11M
Procedure: The chick chorioallantoic membrane (CAM) assay is perhaps the most widely used assay for screening anti-angiogenic or growth inhibitory compounds (see, e.g. Ribatti et al., Int. J. Dev. Biol. 40:1189-1197 (1996)). Cell proliferation and angiogenesis were evaluated by measuring CAM area and BrdU labeling using the CAM assay as modified by Melkonian et al., J. Exp. Zool. (2001), in review. Fertilized chicken eggs were purchased from Hy-Line International (Lakeview, CA), then incubated at 37° C. at 85-90% relative humidity throughout the experiment. Experiments were done to evaluate cell proliferation, angiogenesis, and vascularization in CAMs between days 5 and 6 after fertilization. Albumin (2.5-3.0 cc) was removed on the fourth day after fertilization to drop the embryo away from the shell. Windows were then made in shells, and sealed with transparent tape to allow subsequent access to the CAM for experimental treatment. 200 μl of either EBSS-H or different concentrations of pure chemicals were added to the surface of each CAM at 10 AM on the fifth day after fertilization. A sham control group in which the window was opened and resealed was also included in each experiment. In all cases, the following five concentrations of test reagents were used, 5×10^−3 M, 5×10^−5 M, 5×10^−7M, 5×10^−9 M and 5×10^−11M. For 2-ethylpyridine and 3-ethylpyridine additional concentrations of 5×10^−12M, 5×10^−13M, 5×10^−14 M and 5×10^−15 M were used. For nicotine and nornicotine, concentrations of 5×10^−4 M, 5×10^−6 M, 5×10^−8 M and 5×10^−10 M were also used. Development was terminated at 10 AM on the sixth day after fertilization by fixing the embryo and the CAM with 3% glutaraldehyde in 0.1M cacodylate buffer (pH 7.4) for 2 hours at room temperature. A small volume of fixative was also injected under the CAM. The CAMs were later dissected from eggs, post-fixed in the same fixative for 24 hours at room temperature, then thoroughly rinsed in PBS.
At least 6 CAMs were used in each control and experimental group. Parameters which measure aspects of cell proliferation, angiogenesis, and vacularization were quantified for each CAM. These parameters include: (1) for cell proliferation—CAM area, BrdU labeling of nuclei; (2) for angiogenesis—blood vessel pattern, blood vessel area, blood vessel diameter, and blood vessel branching; (3) for vascularization—density of angiogenic clusters. The area of each CAM was measured by placing the CAMs in PBS in a Petri dish under a Wild-M5A dissecting microscope (Max ERB instrument Co., Burbank, CA), then measuring the longest and shortest length of each CAM with a ruler to the precision of 0.5 mm. The data were recorded into Excel spreadsheet. CAM area was calculated using the formula:
where A=longest length, B=longest width, π=3.14.
Means and standard deviations were then calculated for each control and treatment group. The treated group means were used to compare with control means to determine the effect of each chemical on CAM growth.
On the fifth day after fertilization, either EBSS-H or different concentrations of test chemicals were added to each CAM. A sham group in which windows were opened and resealed without adding any solution was also included to determine if the vehicle EBSS-H had any effect on CAM area. Development was terminated 24 hours later, and CAMs were measured as described in Materials and Methods.

SMILES	effect on CAM area
Cn1cccc1-c1cccnc1 [b-nicotyrine, 3-(1-methylpyrrol-2-yl)pyridine]	slight increase
CN1CCCC1c1cccnc1 (stereo not drawn) [nicotine, 1-methyl-2-(3-pyridyl)pyrrolidine]	significant stimulatory effect
c1cncc([C@@H]2CCCN2)c1 [nornicotine, 3-(1-pyrrolidin-2-yl)pyridine]	significant stimulatory effect

same assay, conditions: 5e-3M

SMILES	CAM size compared with control groups
CCc1ccccn1 [2-ethylpyridine]	significantly smaller

same assay, conditions: CAM area

SMILES	lowest effective dose lower than that of the single pyridine ring [million]
CCc1ccccn1 [2-ethylpyridine]	10

same assay, conditions: CAM area, day 5-6 CAMs, 24 hours

SMILES	LOAEL [mg/mL]	LOAEL (Molar) [µM]	NOAEL (Molar) [nM]	LOAEL (mg/ml) [mg/lml mg/ml]
Cc1cccnc1C [2,3-dimethylpyridine]	0.00536	50	500	–
Cc1cc(C)nc(C)c1 [2,4,6-trimethylpyridine]	0.0061	50	500	–
Cc1ccnc(C)c1 [2,4-dimethylpyridine]	0.00536	50	500	–
CCc1ccccn1 [2-ethylpyridine]	5.36e-10	5e-06	0.0005	–
Cc1ccccn1 [2-methylpyridine]	–	0.005	0.05	4.66e−7
Cc1cccnc1 [3-methylpyridine]	–	0.005	0.05	4.66e−7
c1cc(-c2ccncc2)ccn1 [4,4-bipyridine]	0.0781	500	50000	–
C=Cc1ccncc1 [4-ethenylpyridine]	0.00526	50	500	–
c1ccncc1 [Pyridine, pyridine, reference compound]	0.00396	50	500	–
Cn1cccc1-c1cccnc1 [b-nicotyrine, 3-(1-methylpyrrol-2-yl)pyridine]	7.9e-05	0.5	5	–
CN1CCCC1c1cccnc1 (stereo not drawn) [nicotine, 1-methyl-2-(3-pyridyl)pyrrolidine]	0.081	500	50000	–
c1cncc([C@@H]2CCCN2)c1 [nornicotine, 3-(1-pyrrolidin-2-yl)pyridine]	0.0074	50	5000	–

same assay, conditions: Gallus gallus, 24 h, read-out: lowest effective dose on CAM area

SMILES	minimal effective concentration
Cc1cccnc1C [2,3-dimethylpyridine]	50 µM and 5.36 µg/mL
Cc1cc(C)nc(C)c1 [2,4,6-trimethylpyridine]	50 µM and 6.1 µg/mL
Cc1ccnc(C)c1 [2,4-dimethylpyridine]	50 µM and 5.36 µg/mL
CCc1ccccn1 [2-ethylpyridine]	5e-06 µM and 5.4e-07 µg/mL
Cc1ccccn1 [2-methylpyridine]	0.005 µM and 0.000466 µg/mL
Cc1cccnc1 [3-methylpyridine]	0.005 µM and 0.000466 µg/mL
c1cc(-c2ccncc2)ccn1 [4,4-bipyridine]	500 µM and 78.1 µg/mL
C=Cc1ccncc1 [4-ethenylpyridine]	50 µM and 5.26 µg/mL
c1ccncc1 [Pyridine, pyridine, reference compound]	50 µM and 3.96 µg/mL
Cn1cccc1-c1cccnc1 [b-nicotyrine, 3-(1-methylpyrrol-2-yl)pyridine]	0.5 µM and 0.079 µg/mL
CN1CCCC1c1cccnc1 (stereo not drawn) [nicotine, 1-methyl-2-(3-pyridyl)pyrrolidine]	500 µM and 81 µg/mL
c1cncc([C@@H]2CCCN2)c1 [nornicotine, 3-(1-pyrrolidin-2-yl)pyridine]	50 µM and 7.4 µg/mL

same assay, conditions: dose not stated

SMILES	CAM growth / size compared with control
CCc1ccccn1 [2-ethylpyridine]	significantly inhibited

system: blood vessels of the chick chorioallantoic membrane (CAM); assay: CAM angiogenesis: blood vessel area, pattern formation, capillary plexus; assay type: in vivo; settings: 5e-3M
Procedure: (2001), in review. […] The surface of each CAM was further dissected out of the CAM pocket in PBS. CAMs were then flattened with 18×18-1.5 Fisherbrand microscope cover slip (Fisher Scientific, Pittsburgh, Pa.) in Fisherbrand 60×15 mm standard sterile polystyrene petri dish (Fisher Scientific, Pittsburgh, Pa.). […] Pattern formation was evaluated blindly using video image montages projected on a computer monitor. Images were ranked on a scale of 0 to 3, with 0 being similar to control CAMs and 3 being most dissimilar from controls. The area occupied by major blood vessels in control and chemically treated CAMs was measured in digitalized images projected on a computer monitor using NIH image. Boxes (2.4 c 1.98 mm) were placed in each corner of each CAM image, which had been processed to visualize the major blood vessels. The percentage of pixels occupied by the blood vessels was quantified in each box and an average percentage was computed from the four boxes measured from each CAM. These values were used to compute means and standard deviations for each group. Blood vessel diameter and branching were measured in images projected on a computer monitor using NIH Image software. Density of angiogenic clusters was evaluated in toluidine blue stained histological sections that were digitalized and projected on a computer monitor.

SMILES	major blood vessel pattern formation
CCc1ccccn1 [2-ethylpyridine]	disturbance in major blood vessel pattern formation

same assay, conditions: all doses tested

SMILES	dendritic branching pattern
CCc1ccccn1 [2-ethylpyridine]	disrupted

same assay, conditions: in vivo

SMILES	formation of the capillary plexus
CCc1ccccn1 [2-ethylpyridine]	significantly inhibited; also recorded: failed to form

same assay, conditions: vs EBSS control, exposed day 5, evaluated day 6

SMILES	dose at which blood vessel area was significantly decreased [pM]
CCc1ccccn1 [2-ethylpyridine]	50

system: nuclei of day 5 CAMs; assay: BrdU labeling of CAMs (cell proliferation); assay type: in vivo, chick; settings: 5e-11, eight hours
Procedure: Eight hours after the initial EBSS-H or chemical treatment on day 5 after fertilization, […] BrdU (Sigma, St. Louis, Mo.) were added to each CAM surface. Another 55 minutes after the BrdU treatment, the development of the CAMs was terminated by transferring the embryos and CAMs into a −20° C. freezer for 2-3 minutes. Embryos and CAMs were then fixed at −20° C. in 70% ethanol containing 50 mM glycine buffer, pH 2.0 for 1.5 hours. CAMs were then dissected out of the eggs, washed in PBS and dehydrated in 30%, 50%, 75%, 90% and 100% ethanol series. Dehydrated CAM tissues were further processed in Hypercenter II Tissue Processing System (Shandon Inc., Pittsburgh, Pa.), then embedded in paraffin using Sakura Tissue-TE (Shandon Inc., Pittsburgh, Pa.). Paraffin Sections were cut using a S20 Spencer microtome (Labequip, American Optical Corp., Ontario, Canada), and were mounted on Superfrost/plus glass slides (Fisher Scientific, Tustin, CA). Sections were deparaffinized with 3 changes of Hemo-De for 15 minutes each, 2 changes of 100% ethanol for 5 minutes each, then rehydrated in PBS. […] Images were recorded using a Spot digital camera-SP401-115 (Diagnostic Instruments, Sterling Heights, MI) and processed and montaged using Adobe Photoshop (San Jose, Calif.). […]

SMILES	incorporation of BrdU into nuclei
CCc1ccccn1 [2-ethylpyridine]	significantly less incorporation of BrdU

same assay, conditions: 5e-9, eight hours

SMILES	incorporation of BrdU into nuclei
Cc1ccccn1 [2-methylpyridine]	significantly less incorporation of BrdU
